Results from US20230157998A1, “Methods of Inhibiting SARS-CoV-2 Replication and Treating Corona Virus Disease 2019” (Pfizer Inc., priority 2020, published 2023).
Converted amounts (≈) assume the structure as drawn. “And” between values parts separate entries of the source, which are not always exact repeats. Equal entries are not always repeated.

Tests used:
physchem [1] = details: 25 °C, pH 5, aqueous buffer, thermodynamic from solid, Saturated solubility for PF-00835231 at 25° C.
[2] = human
NL63-CoV 3CLpro = NL63-CoV 3CLpro (Human coronavirus NL63, UniProt P0C6X5); assay: FRET protease activity assay; type: biochemical; details: Alpha-CoV; [E]T 170 ± 4 nM
229E-CoV-2 3CLpro = 229E-CoV-2 3CLpro (Human coronavirus 229E, UniProt P0C6X1); assay: FRET protease activity assay; type: biochemical; details: Alpha-CoV; [E]T 118 ± 3 nM
[3] = Cytotoxicity in MRC-5 cells; details: human
MRC-5 cells = assay: Cytotoxicity in MRC-5 cells; details: read-out: CC50 μM GeoMean; MRC-5, Efflux Inhibitor 0.5 μM
[4] = tested on: CYP1A2, 2B6, 2C8, 2C9, 2C19, 2D6, and 3A; details: read-out: IC50, reversible inhibition of CYP enzymes; probe substrates in pooled HLM
Freeze-thaw experiment = details: solutions of the order-of-addition experiment, −20° C. freezer ~24 hours, thawed at room temperature
[5] = tested on: SARS-CoV-2 USA-NYU-VC-003/2020; assay: In vitro drug efficacy in A549+ACE2 cells; type: cell-based; details: Severe acute respiratory syndrome coronavirus 2, 24 hours post infection
physchem [6] = details: 25 °C, organic solvent or mixture, thermodynamic from solid
[7] = Assay over 7 days, 80 mg/mL SBE-β-CD with PEG400/ethanol (F10); details: ~3:1 PEG400:ethanol (1.5-6.0% v/v), 2, 4, 6 and 8 mg/mL PF-00835231, ambient
[8] = tested on: BetaCov GHB-03021/2020 strain; assay: microbe, parasite or virus in culture; type: cell-based, SARS-CoV-2; details: Severe acute respiratory syndrome coronavirus 2
physchem [9] = details: 25 °C, aqueous with cosolvent or surfactant or cyclodextrin, thermodynamic from solid
Human Cathepsin B = Human Cathepsin B (Homo sapiens, UniProt P07858); assay: Protease panel; type: biochemical
[10] = Plasma protein binding by equilibrium dialysis
[11] = Admixture physical stability in 0.9% w/v sodium chloride; details: 25° C.
HKU1-CoV 3CLpro = HKU1-CoV 3CLpro (Human coronavirus HKU1, UniProt P0C6X2); assay: FRET protease activity assay; type: biochemical; details: Beta-CoV; [E]T 57 ± 1 nM
[12] = Intravenous pharmacokinetics; details: rat, dog, monkey, in vivo, 2 mg/kg
SARS-CoV-2 3CLpro = SARS-CoV-2 3CLpro (Severe acute respiratory syndrome coronavirus 2, UniProt P0DTD1); assay: Thermal-shift assay; details: n=8; 55.9+/−[…] C. (n=16) without compound
SARS-CoV-2 USA-WA1/2020 = assay: microbe, parasite or virus in culture; type: cell-based
SARS-CoV-2 = assay: Antiviral activity in HeLa-ACE2 cells (viral protein detection); type: cell-based; details: Severe acute respiratory syndrome coronavirus 2, compound alone
HCOV-229E = assay: Antiviral activity in MRC-5 cells; type: cell-based; details: lung cell lines (A549-ACE2 and MRC5)
Human Elastase = Human Elastase (Homo sapiens, UniProt P08246); assay: Protease panel; type: biochemical
[13] = 2.5x dilution in 0.9% w/v sodium chloride
[14] = 10x dilution in 0.9% w/v sodium chloride

Chain of Human Elastase (P08246 30-247): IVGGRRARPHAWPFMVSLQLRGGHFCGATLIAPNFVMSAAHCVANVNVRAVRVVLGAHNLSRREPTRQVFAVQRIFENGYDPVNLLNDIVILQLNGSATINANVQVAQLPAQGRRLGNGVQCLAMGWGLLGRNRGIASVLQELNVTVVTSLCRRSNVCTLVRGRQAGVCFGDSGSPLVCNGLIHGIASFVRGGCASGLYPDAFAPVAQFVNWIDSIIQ
Chain of NL63-CoV 3CLpro (P0C6X5 2940-3242): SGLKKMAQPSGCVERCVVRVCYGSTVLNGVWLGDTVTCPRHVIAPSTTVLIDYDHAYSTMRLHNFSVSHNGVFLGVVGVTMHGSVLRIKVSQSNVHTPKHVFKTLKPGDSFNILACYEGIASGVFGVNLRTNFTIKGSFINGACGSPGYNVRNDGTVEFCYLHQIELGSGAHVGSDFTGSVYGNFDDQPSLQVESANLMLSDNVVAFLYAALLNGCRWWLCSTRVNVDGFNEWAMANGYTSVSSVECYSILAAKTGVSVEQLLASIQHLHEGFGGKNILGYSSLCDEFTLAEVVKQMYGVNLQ
Chain of 229E-CoV-2 3CLpro (P0C6X1 2966-3267): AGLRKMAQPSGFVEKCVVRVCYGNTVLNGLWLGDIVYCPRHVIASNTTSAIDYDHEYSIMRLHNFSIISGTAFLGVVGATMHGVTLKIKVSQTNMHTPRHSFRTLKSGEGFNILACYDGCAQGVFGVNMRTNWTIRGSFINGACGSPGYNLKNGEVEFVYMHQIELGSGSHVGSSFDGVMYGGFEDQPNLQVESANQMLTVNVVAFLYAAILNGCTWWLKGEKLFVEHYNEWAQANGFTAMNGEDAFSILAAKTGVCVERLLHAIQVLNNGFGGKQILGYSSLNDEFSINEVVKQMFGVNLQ
Chain of HKU1-CoV 3CLpro (P0C6X2 3335-3637): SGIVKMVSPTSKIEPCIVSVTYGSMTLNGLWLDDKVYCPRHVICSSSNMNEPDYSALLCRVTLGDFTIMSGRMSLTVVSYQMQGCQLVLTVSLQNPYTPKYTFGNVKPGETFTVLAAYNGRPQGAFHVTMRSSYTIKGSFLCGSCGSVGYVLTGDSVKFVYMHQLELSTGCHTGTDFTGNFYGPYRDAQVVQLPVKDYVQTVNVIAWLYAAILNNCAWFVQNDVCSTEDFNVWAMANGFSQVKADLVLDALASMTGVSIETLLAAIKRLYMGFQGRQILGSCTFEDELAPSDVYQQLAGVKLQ

In the case of COc1cccc2[nH]c(C(=O)N[C@@H](CC(C)C)C(=O)N[C@@H](C[C@@H]3CCNC3=O)C(=O)CO)cc12 [PF-00835231], the solubility at 25 h (physchem [1]) is reported as 200 µg/mL (≈ 0.423 mM), the predicted half-life [2] is reported as “approximately 2 h” and the “predicted plasma clearance (CLp)” value [2] is reported as roughly 6 mL/min/kg. It also gave a Ki (NL63-CoV 3CLpro) of 0.8 ± 0.5 nM, a Ki (229E-CoV-2 3CLpro) of 1.5 ± 0.8 nM and a CC50 [3] greater than 100000 nM. For the same molecule, the CC50 (MRC-5 cells) was greater than 100 µM, the IC50 [4] was greater than 200000 nM and the “visual inspection after freezing and thawing” value (Freeze-thaw experiment) was “No particulates were observed in any sample”. The EC50 [5] was 184 nM, the EC90 [5] was 591 nM and the solubility at 48 h (physchem [6]) was greater than 45000 µg/mL. For the same molecule, the “assay values of filtered formulations over 7 days (FIG. 12)” value [7] was “do not change over 7 days”, the EC90 [8] was 1600 nM and the solubility (physchem [9]) was 1700 µg/mL (≈ 3.6 mM). For the same molecule, the solubility at 48 h (physchem [9]) was 1900 µg/mL (≈ 4.02 mM), the solubility at 72 h (physchem [9]) was 2000 µg/mL (≈ 4.23 mM) and the “margin of activity against human cathepsin B compared to 3CLpro” value (Human Cathepsin B) was 1000 fold. For the same molecule, the fraction unbound [10] was 0.26 to 0.46, the “Assay - 0 days” value [11, 13] was 2.3 mg/mL and 2.2 mg/mL and the “Assay - 3 days” value [11, 13] was 2.3 mg/mL and 2.2 mg/mL. For the same molecule, the “Total Impurities - 0 days” value [11, 13] was 1.23 % peak area and 1.20 % peak area, the “Total Impurities - 3 days” value [11, 13] was 1.38 % peak area and 1.37 % peak area and the “Assay - 0 days” value [11, 14] was 0.6 mg/mL. For the same molecule, the “Assay - 3 days” value [11, 14] was 0.6 mg/mL, the “Total Impurities - 0 days” value [11, 14] was 1.20 % peak area and the “Total Impurities - 3 days” value [11, 14] was 1.33 % peak area. The “Assay - 0 days” value ([11]; No dilution) was 5.8 mg/mL and 5.6 mg/mL, the “Assay - 3 days” value ([11]; No dilution) was 5.8 mg/mL and 5.7 mg/mL and the “Total Impurities - 0 days” value ([11]; No dilution) was 1.25 % peak area. The “Total Impurities - 3 days” value ([11]; No dilution) was 1.44 % peak area and 1.48 % peak area, the Ki (HKU1-CoV 3CLpro) was 0.9 ± 0.2 nM and the half-life [12] was less than 1.5 h. The “melting temperature (Tm) of SARS-CoV-2 3CLpro with compound bound” value (SARS-CoV-2 3CLpro) was 70.5+/−0.12 °C, the “SARS-CoV-2 viral infectious titers in apical washes” value (SARS-CoV-2 USA-WA1/2020; 10 μM doses) was “viral titers below the limit of 366 detection at most time points” and the “SARS-CoV-2 viral infectious titers in apical washes” value (SARS-CoV-2 USA-WA1/2020; 0.025, 0.5 or 10 μM in basolateral chamber, washes at 12-hour increments) was “potently inhibit SARS-CoV-2 titers in a dose-dependent manner”. For the same molecule, the EC90 (SARS-CoV-2 USA-WA1/2020; Severe acute respiratory syndrome coronavirus 2, primary human airway epithelial model, antiviral time course, preliminary data, read-out: unbound EC90) was less than 500 nM, the EC50 (SARS-CoV-2) was 140 nM and 144 nM and the EC90 (SARS-CoV-2) was 400 nM and 398 nM. For the same molecule, the “difference in antiviral potency in the presence and absence of P-gp inhibitor” value (HCOV-229E) was “no significant difference in antiviral potency” and the IC50 (Human Elastase) was greater than 33300 nM.
